“And” between values parts separate entries of the source, which are not always exact repeats. Equal entries are not always repeated. Where two headings read alike, the source gives them in different places. No end group written: not given here.
What was measured:
[1] = target: HLA-A*2301 (Homo sapiens, UniProt P04439, D101N/D140Y/D185E/E176V/E190D/F33S/G103R/G107R/H175R/I119L/I121M/I306V/K168Q/K335N/L105A/L300P/N151K/N90K/P307H/Q86E/Q94H/R106L/R138H/R89G/T104I/T345S/V100E/W191G/Y123F); test: biochemical; type: binding
[2] = target: HLA-A*2902 (Homo sapiens, UniProt P04439, A270S/D101N/D185E/E176V/E277Q/E87Q/F33T/G231S/H175R/I121M/I218V/I322F/K168Q/L300P/L318F/M331R/P208A/P217A/Q86L/T323A/T345S/V100A/V358M); test: MHC molecular binding / Capture assay, IC50: A*2902
[3] = target: HLA-A*2402 (Homo sapiens, UniProt P04439, D101N/D140Y/D185E/E176V/E190D/F33S/G103R/G107R/I119L/I121M/I306V/K335N/L105A/L180Q/L300P/N151K/N90K/Q86E/Q94H/R106L/R138H/R89G/T104I/T345S/V100E/W191G/Y123F); test: MHC molecular binding / Capture assay, IC50: A*2402
[4] = target: HLA-A*3002 (Homo sapiens, UniProt P04439, D101N/D140H/D185E/E176R/F33S/G80R/H175R/K168Q/Q94H/R138E/R41S/V100E); test: biochemical; type: binding
[5] = target: HLA-A*0101 (Homo sapiens, UniProt P04439, A114D/A174V/A182V/D101N/D185E/E176A/E190D/L180R/Q94H/R68K/S129P/T187R/V100A/V91M/W191G); test: biochemical; type: binding; conditions: Binding affinity to A*0101 (expressed as an IC50)
[6] = target: H-2 Db (Mus musculus, UniProt P01899); test: biochemical; type: binding, murine
H-2 Db, sequence (P61769 21-119): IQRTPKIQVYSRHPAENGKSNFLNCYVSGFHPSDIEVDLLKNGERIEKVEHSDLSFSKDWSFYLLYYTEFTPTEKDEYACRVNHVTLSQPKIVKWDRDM
H-2 Db, sequence (P01899 25-362): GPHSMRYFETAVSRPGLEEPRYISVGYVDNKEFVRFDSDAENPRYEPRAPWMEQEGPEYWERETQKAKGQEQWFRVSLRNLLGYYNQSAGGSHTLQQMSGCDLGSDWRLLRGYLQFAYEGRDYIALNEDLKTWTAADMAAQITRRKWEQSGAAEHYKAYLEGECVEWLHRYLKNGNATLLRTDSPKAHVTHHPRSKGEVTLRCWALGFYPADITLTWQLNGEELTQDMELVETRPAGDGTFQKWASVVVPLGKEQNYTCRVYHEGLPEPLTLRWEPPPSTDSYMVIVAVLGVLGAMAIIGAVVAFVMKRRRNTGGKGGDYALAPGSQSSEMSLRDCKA

[7] = Binding affinity to A*2902 (expressed as an IC50)
[8] = Binding affinity to A*3002 (expressed as an IC50)

| Compound | IC50 [2] [nM] | IC50 [4] [nM] | IC50 [5] | IC50 ([6]; Db) | further results |
| --- | --- | --- | --- | --- | --- |
| CC[C@H](C)[C@H](NC(=O)[C@H](Cc1c[nH]cn1)NC(=O)[C@H](Cc1ccccc1)NC(=O)[C@@H](N)Cc1c[nH]c2ccccc12)C(=O)N[C@@H](CO)C(=O)N[C@@H](CS)C(=O)N[C@@H](CC(C)C)C(=O)N[C@H](C(=O)N[C@@H](Cc1ccccc1)C(=O)O)[C@@H](C)O | 95 | 75100 | 85300 nM | – | IC50 [1]: 11 nM; IC50 [3]: 204 nM |
| AAAANAAAM | – | – | – | 23 nM | – |
| CC(C)C[C@H](NC(=O)[C@H](CC(=O)O)NC(=O)[C@H](CC(C)C)NC(=O)[C@@H](NC(=O)[C@H](Cc1ccc(O)cc1)NC(=O)[C@H](CCC(=O)O)NC(=O)[C@H](CCCCN)NC(=O)[C@H](CC(C)C)NC(=O)[C@@H](NC(=O)[C@@H]1CCCN1)[C@@H](C)O)C(C)C)C(=O)N[C@@H](Cc1ccc(O)cc1)C(=O)O | – | – | 426 nM | – | IC50 [2, 7]: 805 nM |
| KQYLNLYPV | – | – | – | 3.4 nM | – |
| RNPRFYNL | – | – | – | > 44000 nM | – |
| FAPGYNPAL [FAPGYNPAL] | – | – | – | 2 nM | – |
| CSCC[C@H](NC(=O)[C@H](C)NC(=O)[C@H](C)NC(=O)[C@H](C)NC(=O)[C@H](C)NC(=O)[C@H](Cc1ccc(O)cc1)NC(=O)[C@H](C)NC(=O)[C@H](C)NC(=O)[C@H](C)NC(=O)[C@H](C)N)C(=O)O | – | – | – | > 44000 nM | – |
| SGVENPGGYCL | – | – | – | 60 nM | – |
| FQPQNGQFI | – | – | – | 6.9 nM and 4.9 nM and 17 nM | – |
| FQAAESNERY | – | – | 8960 nM | – | IC50 [2, 7]: 1780 nM; IC50 [4, 8]: 372 nM |
| CC[C@H](C)[C@H](NC(=O)[C@H](CC(=O)O)NC(=O)[C@H](CCC(N)=O)NC(=O)[C@@H](N)CCCNC(=N)N)C(=O)N[C@@H](CC(C)C)C(=O)N[C@@H](CC(=O)O)C(=O)N[C@@H](CC(C)C)C(=O)N[C@@H](Cc1c[nH]c2ccccc12)C(=O)N[C@H](C(=O)N[C@@H](Cc1ccc(O)cc1)C(=O)O)C(C)C | – | – | 9000 nM | – | IC50 [2, 7]: 13900 nM; IC50 [4, 8]: 95 nM |
| TALANTIEV | – | – | – | – | IC50 ([6]; read-out: Db): 16 nM |
| LTDLRLSCVY | 1780 | 613 | 45 nM | – | – |
| CC[C@H](C)[C@H](NC(=O)[C@H](CCC(=O)O)NC(=O)[C@@H]1CCCN1C(=O)[C@@H]1CCCN1C(=O)[C@@H](NC(=O)[C@H](CC(N)=O)NC(=O)[C@H](CO)NC(=O)[C@@H]1CCCN1C(=O)CNC(=O)[C@@H](N)CO)[C@@H](C)O)C(=O)O | – | – | – | 8.1 nM | – |
| LTDIEITCVY | 540 | 80 | 12 nM and 33 nM | – | – |
| KTDQRSEVY | 200000 | 1170 | 84 nM and 41 nM | – | – |

| Compound | IC50 [2] [nM] | IC50 [4] [nM] | IC50 [5] | IC50 ([6]; Db) | further results |
| --- | --- | --- | --- | --- | --- |
| LSLDGPGPGY | – | – | 266 nM | – | IC50 [2, 7]: 274 nM |
| LTEYVLDLY | 941 | 81 | 6 nM and 8 nM | – | – |
| QTEQATSNY | 119000 | 3250 | 14 nM | – | – |
| ETRHYNYSLY | 5460 | 29 | 445 nM | – | – |
| ETSSALEIPY | 12000 | 7140 | 19 nM | – | – |
| ELDSALEIPY | 82200 | 38300 | 38 nM | – | – |
| ITKILYQSNPY | 64900 | – | > 10100 nM | – | – |
| TALANTIEY | – | – | – | – | IC50 ([6]; read-out: Db): 3.7 nM |
| ISDYRHYNY | 45 | – | 16 nM and 28 nM | – | – |
| ASNENMDAM | – | – | – | 28 nM | – |
| YTKVSEFRWY | 3310 | 420 | 276 nM and 204 nM | – | – |
| SGVENPGGYCM | – | – | – | 128 nM | – |
| KYDYYDYSVY | 5750 | 11 | 186000 nM | – | – |
| CC(C)[C@H](NC(=O)[C@@H](NC(=O)[C@H](CC(=O)O)NC(=O)[C@H](CO)NC(=O)[C@H](CC(N)=O)NC(=O)[C@@H](NC(=O)CNC(=O)[C@H](CS)NC(=O)[C@@H](N)Cc1ccccc1)C(C)C)[C@@H](C)O)C(=O)O | – | – | – | 206 nM and 166 nM | – |
| YSDIRELRHY | 1140 | 740 | 14 nM | – | – |
| QTEQATSNYY | 9580 | 500 | 11 nM | – | – |

— US20060079453A1, “Hla binding peptides and their uses” (priority 2002, published 2006)
